The record followed here is paper PMC6155299, “Synthesis and Evaluation of New Pyrazoline Derivatives as Potential Anticancer Agents in HepG-2 Cell Line” (Molecules : A Journal of Synthetic Chemistry and Natural …, 2017).

The test system of data set [1] is HepG-2 cells. The data set is described as follows: Annexin-V assay (annexin V/PI flow cytometry). In kind it is cell-based, human. Conditions: 12 h. Here is the method: Approximately 1.5 × 10^5 HepG-2 cells/well were plated in 6-well plates and allowed to adhere. After 24 h, the medium was replaced with fresh culture medium containing compound b17 at final concentrations of 0 µM, 0.9 µM, 2.7 µM, and 4.5 µM. Cells were harvested after 12 h. The cells were trypsinized, washed in phosphate-buffered saline (PBS), and centrifuged at 1000 rpm for 5 min. The cells were then resuspended in 200 µL of staining solution (containing 10 µL PI and 5 µL Annexin V–PE in binding buffer), mixed gently, and incubated for 15 min at 25 °C in the dark. The samples were later analyzed with a BD Accuri™ C6 flow cytometer.
(In general: Flow cytometry measures light scatter and fluorescence of single cells or particles in a stream.)

For data set [2], the system named is HepG-2 cells. Description: MTT assay, cytotoxic effects on HepG-2 cells. In kind it is cell-based, human. Particulars: Homo sapiens, 48 h. The procedure: (§1) Primary hepatocytes were isolated from male SD rats weighing 250–300 g using a modified in situ collagenase perfusion method and then the cells were cultured in Dulbecco’s Modified Eagle’s Medium (DMEM) with 2 g/L bovine serum albumin (BSA) and 50 mg/L gentamicin. HepG-2 cells were incubated in RPMI 1640 medium supplemented with 10% fetal bovine serum (FBS) and 1% penicillin–streptomycin liquid. Cells were incubated at 37 °C in a humidified atmosphere of 95% air and 5% CO2. Stock solutions of compounds and cisplatin were prepared in dimethyl sulfoxide (DMSO), then added to fresh culture medium to obtain final concentrations.
Next, compounds b14 and b18 were prepared in five different concentrations (20 µM, 40 µM, 60 µM, 80 µM, 100 µM), and compounds b15, b16, and b17, along with cisplatin, were prepared in seven different concentrations (2.5 µM, 5 µM, 7.5 µM, 10 µM, 20 µM, 40 µM, 60 µM). A suspension of growing cells (50,000/mL) was prepared, and 100 µL/well dispensed into 96-well plates, yielding a density of 5000 cells/well. The cells were incubated for 24 h before adding the pyrazoline derivatives. The optimal cell number for cytotoxicity assays was determined in preliminary experiments. At the end of the incubation period, the medium was removed and 100 µL of different concentrations of pyrazoline derivatives were added to wells for 24 h and 48 h. Following the exposure period, 20 µL of MTT (5 mg/mL) were added to cells and incubated for a further 4 h at 37 °C. The medium was removed and the formazan crystals were solubilized by adding 150 µL DMSO to each well. After 10 min of shaking, the absorbance was measured at 550 nm using a FilterMax F5 Multi-Mode Microplate Reader (Energy Chemical, Shanghai, China). Cells were treated with each compound with four replicates per concentration, and each experiment was conducted at least three times. Dose–inhibition rate curves and IC50 values, defined as the drug concentrations which reduced absorbance to 50% of control values, were then generated.
(Tetrazolium dyes change colour on reduction, which living cells bring about.)

For data set [3], the system named is HepG-2 cells. Description: Cell cycle analysis by flow cytometry (PI). In kind it is cell-based, human. Particulars: 24 h. The procedure:
Based on the results of the cytotoxicity assay, compound b17 was selected for further mechanistic study with HepG-2 cells. For flow cytometry analysis of DNA content, approximately 1.5 × 10^5 HepG-2 cells/well in exponential growth mode were plated in 6-well plates and allowed to adhere, then treated with different concentrations of compound b17 for 24 h. After incubation, the cells were collected, centrifuged, and fixed with ice-cold ethanol (70%). The cells were treated with RNase A and stained with PI. Samples were analyzed on a BD Accuri C6 flow cytometer (BD, New York, NY, USA). DNA histograms were analyzed using ModFit for Windows.

The test system of another data set is primary hepatocytes. Description: MTS assay, cytotoxicity against primary hepatocytes. Type of data set: cell-based, rat. Conditions: for IC50: Rattus norvegicus, Hepatocyte, 48 h; for cytotoxicity against primary hepatocytes (in words): compared with HepG-2. The procedure:
as §1
The cytotoxicological activity of compounds b5, b9, and b14–18 were evaluated against primary hepatocytes using the MTS assay (Cell Titer 96® Aqueous Cell Proliferation Assay, Promega, Cat. No. G5421) as a fast and sensitive quantification of cell proliferation and viability. The concentrations of compounds were prepared in seven different concentrations (2.5 µM, 5 µM, 10 µM, 20 µM, 40 µM, 80 µM, 160 µM). Cells were seeded into 96-well plates at a density of 26,000 cells/well. The plates were incubated for 24 h prior to any treatment. At the end of this period, the medium was removed and 100 µL of different concentrations of pyrazoline derivatives were added to wells for 48 h. Following the exposure period, 20 μL of the combined MTS/PMS solution was added to cells and incubated for a further 2 h at 37 °C, then the absorbance was recorded at 490 nm using an ELISA Plate Reader (ELISA, Emeryville, CA, USA). The values of IC50, the effective concentration at which 50% of the primary hepatocytes were inhibited, were calculated to evaluate the cytotoxic activities.

Where [4] appears, read: HepG2, HepG-2 cell line, read-out: IC50 HepG-2.
The mark [5] stands for this setting: HepG2, HepG-2 cells, read-out: IC50 against HepG-2 cells.

Molecules are shown by their SMILES. Read-outs that look alike come from different tables or passages of the source.

Regarding `COc1cc(C2CC(c3ccccc3O)=NN2C(=O)c2cc3ccccc3s2)cc(OC)c1O` (stereo not shown) [b17, Benzo[b]thiophen-2-yl-[5-(4-hydroxy-3,5-dimethoxyphenyl)-3-(2-hydroxyphenyl)-4,5-dihydro-pyrazol-1-yl]-methanone], the melting point (in general, the temperature, or range, at which the solid turns liquid) was in the range of 169.2 to 170.1 °C. The “percentage of cell apoptosis” value with HepG-2 cells [1] (HepG-2, 0.9 µM) stood at 7.6%. For the same molecule, the “percentage of cell apoptosis” value in the data set with HepG-2 cells [1] (HepG-2, 2.7 µM) amounted to 8.7%. Also, in the data set on HepG-2 cells [1] (HepG-2, 4.5 µM), the “percentage of cell apoptosis” value amounted to 10.2%. For the same molecule, the IC50 (usually the concentration that gives 50% inhibition) in the data set on HepG-2 cells [2] (setting [4]) stood at 3.57 ± 1.39 µM. Moreover, in the data set with HepG-2 cells [3] (HepG-2, 0.9 µM), the “cells in G1 phase (Dip G1)” value amounted to 56.88%, the “cells in G2/M phase (Dip G2)” value came out at 16.90% and the “cells in S phase (Dip S)” value was found to be 26.22%. Also, in the data set on HepG-2 cells [3] (HepG-2, 2.7 µM), the “cells in G1 phase (Dip G1)” value is 33.02%, the “cells in G2/M phase (Dip G2)” value was found to be 41.50% and the “cells in S phase (Dip S)” value came out at 25.48%. Moreover, in the data set on HepG-2 cells [3] (HepG-2, 4.5 µM), the “cells in G1 phase (Dip G1)” value stood at 3.11% and the “cells in S phase (Dip S)” value turned out to be 13.89%. Moreover, in the data set on primary hepatocytes, the half-inhibitory concentration (IC50) amounted to 33.5 ± 2.33 µM and the “cytotoxicity against primary hepatocytes (in words)” value (“cytotoxicity” below) is reported as “low cytotoxicity”.
`COc1cc(C2CC(c3ccccc3O)=NN2S(=O)(=O)c2ccc(C)cc2)cc(OC)c1O` (stereo not shown) [b9, 4-[5-(2-Hydroxyphenyl)-2-(toluene-4-sulfonyl)-3,4-dihydro-2H-pyrazol-3-yl]-2,6-dimethoxy-phenol] yielded a melting point of 194.6 to 194.7 °C. The IC50 in the data set on HepG-2 cells [2] (setting [4]) was determined as 12 ± 1.83 µM. For the same molecule, the half-inhibitory concentration (IC50) with HepG-2 cells [2] (setting [5]) was less than 50 µM. For the same molecule, in the data set on primary hepatocytes, half-maximal inhibition (IC50) required 29.7 ± 2.43 µM and the “cytotoxicity” value is recorded as “lower cytotoxicological activity”.
`COc1cc(C2CC(c3ccccc3O)=NN2C(=O)c2cccs2)cc(OC)c1O` (stereo not shown) [b15, [5-(4-Hydroxy-3,5-dimethoxyphenyl)-3-(2-hydroxyphenyl)-4,5-dihydro-pyrazol-1-yl]-thiophen-2-yl-methanone] showed a melting point of 196.1 to 197.2 °C. Also, the IC50 with HepG-2 cells [2] (setting [4]) stood at 4.51 ± 1.49 µM. In the data set with primary hepatocytes, this molecule returned an IC50 of 19.24 ± 0.08 µM.
In the case of `COc1cc(C2CC(c3ccccc3O)=NN2C(=O)c2ccc3ccccc3c2)cc(OC)c1O` (stereo not shown) [b14, [5-(4-Hydroxy-3,5-dimethoxyphenyl)-3-(2-hydroxyphenyl)-4,5-dihydro-pyrazol-1-yl]-naphthalen-2-yl-methanone], the melting point lay within 185.5 to 186.5 °C. In addition, the IC50 in the data set on HepG-2 cells [2] (setting [4]) turned out to be 18 ± 1.37 µM. In addition, in the data set on primary hepatocytes, half-maximal inhibition (IC50) was put at 22.7 ± 1.21 µM.
In turn, `COc1cc(C2CC(c3ccccc3O)=NN2c2ccccc2)cc(OC)c1O` (stereo not shown) [b18, 4-[5-(2-Hydroxyphenyl)-2-phenyl-3,4-dihydro-2H-pyrazol-3-yl]-2,6-dimethoxy-phenol] showed a melting point of 169.7 to 170.8 °C. Moreover, in the data set with HepG-2 cells [2] (setting [4]), the IC50 came to 28.5 ± 1.34 µM. The molecule further displayed an IC50 in the data set with primary hepatocytes of 50.7 ± 3.21 µM.
For `COc1cc(C2CC(c3ccccc3O)=NN2C(=O)c2ccco2)cc(OC)c1O` (stereo not shown) [b16, Furan-2-yl-[5-(4-hydroxy-3,5-dimethoxyphenyl)-3-(2-hydroxyphenyl)-4,5-dihydro-pyrazol-1-yl]-methanone] the same measures were 201.1 to 203.7 °C, 4.61 ± 1.27 µM and 20.7 ± 1.72 µM.
The molecule `COc1cc(C2CC(c3ccccc3O)=NN2S(=O)(=O)c2ccccc2)cc(OC)c1O` (stereo not shown) [b5, 4-[2-Benzenesulfonyl-5-(2-hydroxyphenyl)-3,4-dihydro-2H-pyrazol-3-yl]-2,6-dimethoxy-phenol] displayed a melting point of 163.1 to 164.4 °C. For the same molecule, in the data set on HepG-2 cells [2] (setting [4]), the IC50 was 28.8 ± 1.32 µM. For the same molecule, the concentration for half-maximal inhibition (IC50) in the data set with HepG-2 cells [2] (setting [5]) is less than 50 µM. In the data set with primary hepatocytes, it took 35.1 ± 2.21 µM to reach half-maximal inhibition (IC50) and the “cytotoxicity” value was “lower cytotoxicological activity”.
